Columns and labels:
murine P388 leukemia [1] = test: Example XXI: antileukemic activity against murine P388 leukemia, mean survival days and percentage increased life span; type: in vivo; conditions: 10 mg/kg i.p. on day 1; 1×10^6 P388 cells i.p.; CD2F1 male mice; 5% ethanol, 95% sterile water
Method: The cyclohexane-1,2-diammine-platinum(II) salt of 2-(acetylamino)-3,4,6-tri-O-acetyl-2-deoxyglucopyranosyl-amino-thioxomethyl-imino diacetic acid and cisplatin were tested against murine P388 leukemia. The murine P388 leukemia system is known to be sensitive to cisplatin. The leukemia was maintained intraperitoneally in female DBA/2 mice.
Prior to administration, cisplatin was dissolved in ethanol. The solution was then adjusted to 5% ethanol, 95% sterile water The cyclohexane-1,2-diammine-platinum(II) salt of 2-(acetylamino)-3,4,6-tri-O-acetyl-2-deoxyglucopyranosylamino-thioxomethyl-imino diacetic acid was dissolved in sterile water at 4 degrees celsius immediately prior to administration.
Each compound was administered intraperitoneally to groups of CD2F1 male mice on day 1 after intraperitoneal implantation of 1×10^6 P388 leukemia cells. P388 antileukemic activity for each compound was assessed by mean survival days and percentage increased life span (% ILS).
% ILS is calculated as follows: […]
(§1) wherein T is the mean survival days of the treated mice and C is the mean survival days of the untreated mice.

murine P388 leukemia [2] = test: Example XXXVII: antileukemic activity against murine P388 leukemia, mean survival days and percentage increased life span; type: in vivo; conditions: 10 mg/kg i.p. on day 1; 1×10^6 P388 cells i.p.; CD2F1 male mice; in sterile saline
Method: The compound 2-[[[3,4,6-tri-O-acetyl-2-(N-acetylamino)-2-deoxy-alpha-D-glucopyranosyl]amino]thioxomethyl]amino]butane-dioato-O,O']-[1,2-cyclohexanediammine-N,N']platinum (II) and cisplatin were tested against murine P388 leukemia. The murine P388 leukemia system is known to be sensitive to cisplatin. The leukemia was maintained intraperitoneally in female DBA/2 mice.
Prior to administration, cisplatin was dissolved in sterile saline (0.85% sodium chloride). The compound 2-[[[3,4,6-tri-O-acetyl-2-(N-acetylamino)-2-deoxy-alpha-D-glucopyranosyl]amino]-thioxomethyl]amino]butanedioato-O,O']-[1,2-cyclohexanediammine-N,N']platinum (II) was dissolved in sterile water at 4° C. immediately prior to administration.
Each compound was administered intraperitoneally to groups of CD2F1 male mice on day 1 after intraperitoneal implantation of 1×10^6 P388 leukemia cells. P388 antileukemic activity for each compound was assessed by mean survival days and percentage increased life span (%ILS).
%ILS is calculated as follows: […]
as §1

P388 cells = test: Example XXXIX: Murine Antitumor Activity, P388 Antitumor Activity % ILS; type: in vivo, murine; male CD2F1 mice; conditions: vehicle mean survival 8.5 days
Method: (§2) Murine Antitumor Activity
(§3) *P388 cells implanted intraperitoneally (i.p.) into male CD2F1 mice
(§4) on Day 0. Drugs (in 5% dextrose) administered i.p. on Day 1. Increase in
(§5) life span (% ILS) was calculated compared to a group of mice receiving
(§6) drug vehicle, with a mean survival of 8.5 days.
(§7) +compound was administered as a suspension.

male CD2F1 mice = test: Example XXXIX: Deaths Due to Drug Toxicity; type: in vivo
Method: as §2, §3, §4, §5, §6, §7

[3] = 150 mg/kg single dose i.p. on Day 1, in 5% dextrose
[4] = 200 mg/kg single dose i.p. on Day 1, in 5% dextrose
[5] = 250 mg/kg single dose i.p. on Day 1, administered as a suspension

Compound: N.N.[Cl][Pt][Cl] [cisplatin, cis-diammine-dichloroplatinum (II)]
- % ILS (percentage increased life span) (murine P388 leukemia [1]): 83%
- Mean Survival (murine P388 leukemia [1]): 17.4 days
- % ILS (percentage increased life span) (murine P388 leukemia [2]): 96%
- Mean Survival (murine P388 leukemia [2]): 15.7 days

Compound: Cis-R,R-(acetamidomalonato-O,O')(1,2-cyclohexanediamine-N,N')platinum (II) [AMP]
- P388 Antitumor Activity: % ILS (P388 cells; [3]): 115%
- P388 Antitumor Activity: % ILS (P388 cells; [4]): 93%
- Deaths Due to Drug Toxicity (male CD2F1 mice; [4]): 1/10
- Deaths Due to Drug Toxicity (male CD2F1 mice; 250 mg/kg single dose i.p. on Day 1, in 5% dextrose): 5/10

Compound: Cis-R,R-(formamidomalonato-O,O')(1,2-cyclohexanediamine-N,N') platinum (II) [FMP]
- P388 Antitumor Activity: % ILS (P388 cells; 150 mg/kg single dose i.p. on Day 1, administered as a suspension): 84%
- P388 Antitumor Activity: % ILS (P388 cells; 200 mg/kg single dose i.p. on Day 1, administered as a suspension): 115%
- P388 Antitumor Activity: % ILS (P388 cells; [5]): 81%
- Deaths Due to Drug Toxicity (male CD2F1 mice; [5]): 2/10

Compound: cis-R,R-[2-[(pentalacetylgluconyl)imino]propanedioato-O,O'](1,2-cyclohexanediammine-N,N')platinum(II) [R,R-AG-AMP]
- P388 Antitumor Activity: % ILS (P388 cells; [3]): 75%
- Deaths Due to Drug Toxicity (male CD2F1 mice; [3]): 0/10
